These compounds were tested against Human Factor XIIa (Homo sapiens (Human), UniProt P00748) (assay: Determination of FXIIa inhibition (fluorogenic substrate H-DPro-Phe-Arg-AFC, IC50 assay)). Conditions: substrate H-DPro-Phe-Arg-AFC at Km, 25° C.; class scale A-G.
Type: biochemical
Procedure: Determination of FXIIa Inhibition
In vitro inhibition of Factor XIIa was determined using an IC50 assay based on standard literature methods (see e.g Baeriswyl et al., ACS Chem. Biol., 2015, 10 (8) 1861; Bouckaert et al., European Journal of Medicinal Chemistry 110 (2016) 181). Human Factor XIIa (Enzyme Research Laboratories) was incubated at 25° C. with the fluorogenic substrate H-DPro-Phe-Arg-AFC (Peptide Protein Science) and various concentrations of the test compound. Protease activity was measured by monitoring the accumulation of liberated fluorescence from the substrate over 5 min at 25° C. The linear rate of fluorescence increase per minute was expressed as percentage (%) activity. The Km for the cleavage of the substrate by FXIIa was determined by standard transformation of the Michaelis-Menten equation. The compound inhibitor assays were performed at substrate Km concentration. IC50 values were calculated as the concentration of inhibitor giving 50% inhibition (IC50) of the uninhibited enzyme activity (100%).

Chain of Human Factor XIIa (P00748 373-615): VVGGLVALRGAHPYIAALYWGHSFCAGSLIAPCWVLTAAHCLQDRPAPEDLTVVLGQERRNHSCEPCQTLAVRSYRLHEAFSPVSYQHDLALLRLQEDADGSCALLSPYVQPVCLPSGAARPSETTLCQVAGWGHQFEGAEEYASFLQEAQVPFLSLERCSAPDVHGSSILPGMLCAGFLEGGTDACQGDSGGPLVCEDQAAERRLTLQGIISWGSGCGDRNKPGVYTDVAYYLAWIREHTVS

Row | IC50 [µM] | Compound
1 | 0.3 to 1 | CN1CC2(CC(OCc3ccc(CNc4ccc5c(N)nccc5c4)c(F)c3)CS2)C1 (stereo not shown) [Example 2252, 6-N-({2-fluoro-4-[({2-methyl-5-thia-2-azaspiro[3.4]octan-7-yl}oxy)methyl]phenyl}methyl)isoquinoline-1,6-diamine]
2 | 0.01 to 0.1 | Nc1nccc2c(NCc3ccc(N4CCn5c(nnc5C(F)(F)F)C4)cc3F)cccc12 [Example 2256, N5-(2-Fluoro-4-(3-(trifluoromethyl)-5,6-dihydro-[1,2,4]triazolo[4,3-a]pyrazin-7(8H)-yl)benzyl)isoquinoline-1,5-diamine]
3 | 0.1 to 0.3 | Cc1cc(N2CCn3c(nnc3C(F)(F)F)C2)ccc1CNc1cccc2c(N)nccc12 [Example 2257, N5-(2-methyl-4-(3-(trifluoromethyl)-5,6-dihydro-[1,2,4]triazolo[4,3-a]pyrazin-7(8H)-yl)benzyl)isoquinoline-1,5-diamine]
4 | 1 to 3 | CN1CCC(Cn2cc(CNc3ccc4c(N)nccc4c3)cn2)CC1 [Example 3253, N6-((1-((1-methylpiperidin-4-yl)methyl)-1H-pyrazol-4-yl)methyl)isoquinoline-1,6-diamine]
5 | 0.3 to 1 | CN1CCC(CCn2cc(CNc3cccc4c(N)nccc34)cn2)CC1 [Example 3255, N5-((1-(2-(1-methylpiperidin-4-yl)ethyl)-1H-pyrazol-4-yl)methyl)isoquinoline-1,5-diamine]
6 | 10 to 40 | CN1CCC(COc2cc(CNc3ccc4c(N)ncnc4c3)ccn2)CC1 [Example 4263, 7-N-({2-[(1-methylpiperidin-4-yl)methoxy]pyridin-4-yl}methyl)quinazoline-4,7-diamine]
7 | 10 to 40 | CN1CCC(COc2cc(CNc3cnc4[nH]cc(Cl)c4c3)ccn2)CC1 [Example 4264, 3-chloro-N-((2-((1-methylpiperidin-4-yl)methoxy)pyridin-4-yl)methyl)-1H-pyrrolo[2,3-b]pyridin-5-amine]
8 | 1 to 3 | Nc1nccc2cc(NCc3ccnc(OCC4CCn5cc(C(F)(F)F)nc5C4)c3)ccc12 (stereo not shown) [Example 4266, 6-N-[(2-{[2-(trifluoromethyl)-5H,6H,7H,8H-imidazo[1,2-a]pyridin-7-yl]methoxy}pyridin-4-yl)methyl]isoquinoline-1,6-diamine]
9 | 10 to 40 | Nc1nccc2cc(NCc3cccc(CN4CCCC4)c3)ccc12 [Example 4287, 6-N-{[3-(pyrrolidin-1-ylmethyl)phenyl]methyl}isoquinoline-1,6-diamine]
10 | 3 to 10 | CN1CCN(CCc2cccc(CNc3ccc4c(N)nccc4c3)c2)CC1 [Example 4288, 6-N-({3-[2-(4-methylpiperazin-1-yl)ethyl]phenyl}methyl)isoquinoline-1,6-diamine]
11 | 1 to 3 | CC(C)N1CCC(OCc2cc(CNc3ccc4c(N)ncc(Cl)c4c3)ccn2)CC1 [Example 4296, 4-chloro-6-N-[(2-{[(1-isopropylpiperidin-4-yl)oxy]methyl}pyridin-4-yl)methyl]isoquinoline-1,6-diamine]
12 | 0.1 to 0.3 | Nc1nccc2cc(NCc3ccnc(OCC4CCn5ccnc5C4)c3)ccc12 (stereo not shown) [Example 4408, N6-((2-((5,6,7,8-tetrahydroimidazo[1,2-a]pyridin-7-yl)methoxy)pyridin-4-yl)methyl)isoquinoline-1,6-diamine]
13 | 0.3 to 1 | CN1CCC(CCc2cc(CNc3ccc4c(N)nccc4c3)ccn2)CC1 [Example 4409, 6-N-({2-[2-(1-methylpiperidin-4-yl)ethyl]pyridin-4-yl}methyl)isoquinoline-1,6-diamine]
14 | 0.3 to 1 | CN1CCC(CCc2cccc(CNc3ccc4c(N)nccc4c3)c2)CC1 [Example 4410, 6-N-({3-[2-(1-methylpiperidin-4-yl)ethyl]phenyl}methyl)isoquinoline-1,6-diamine]
15 | 0.3 to 1 | Nc1nccc2cc(NCc3ccnc(OCC4CCn5cnnc5C4)c3)ccc12 (stereo not shown) [Example 4411, 6-N-[(2-{5H,6H,7H,8H-[1,2,4]triazolo[4,3-a]pyridin-7-ylmethoxy}pyridin-4-yl)methyl]isoquinoline-1,6-diamine]
16 | 1 to 3 | Cc1nnc2n1CCC(COc1cc(CNc3ccc4c(N)nccc4c3)ccn1)C2 (stereo not shown) [Example 4413, 6-N-{[2-({3-methyl-5H,6H,7H,8H-[1,2,4]triazolo[4,3-a]pyridin-7-yl}methoxy)pyridin-4-yl]methyl}isoquinoline-1,6-diamine]
17 | 0.1 to 0.3 | CC(Oc1cc(CNc2ccc3c(N)nccc3c2)ccn1)C1CCN(C)CC1 (stereo not shown) [Example 4414, 6-N-({2-[1-(1-methylpiperidin-4-yl)ethoxy]pyridin-4-yl}methyl)isoquinoline-1,6-diamine]
18 | 0.3 to 1 | CN1CCC(F)(COc2cc(CNc3ccc4c(N)nccc4c3)ccn2)CC1 [Example 4415, 6-N-({2-[(4-fluoro-1-methylpiperidin-4-yl)methoxy]pyridin-4-yl}methyl)isoquinoline-1,6-diamine]
19 | 0.3 to 1 | CN1CCC(COc2cc(CNc3ccc4c(N)nccc4c3)ccn2)CC1=O (stereo not shown) [Example 4416, 4-{[(4-{[(1-aminoisoquinolin-6-yl)amino]methyl}pyridin-2-yl)oxy]methyl}-1-methylpiperidin-2-one]
20 | 0.3 to 1 | CN1CCC(COc2cc(CNc3cccc4c(N)nccc34)ccn2)CC1=O (stereo not shown) [Example 4417, 4-{[(4-{[(1-aminoisoquinolin-5-yl)amino]methyl}pyridin-2-yl)oxy]methyl}-1-methylpiperidin-2-one]
21 | 0.3 to 1 | CN1C[C@@H]2C(COc3cc(CNc4cccc5c(N)nccc45)ccn3)[C@@H]2C1 (stereo partly drawn) [Example 4418, 5-N-[(2-{[(1R,5S)-3-methyl-3-azabicyclo[3.1.0]hexan-6-yl]methoxy}pyridin-4-yl)methyl]isoquinoline-1,5-diamine]
22 | 3 to 10 | CN1CCC(COc2cc(CN(C)c3cccc4c(N)nccc34)ccn2)CC1 [Example 4419, N5-methyl-N5-((2-((1-methylpiperidin-4-yl)methoxy)pyridin-4-yl)methyl)isoquinoline-1,5-diamine]
23 | 1 to 3 | Cn1ccnc1CCCOc1cc(CNc2ccc3c(N)nccc3c2)ccn1 [Example 4420, 6-N-({2-[3-(1-methylimidazol-2-yl)propoxy]pyridin-4-yl}methyl)isoquinoline-1,6-diamine]
24 | 0.3 to 1 | Cn1ccnc1CCCOc1cc(CNc2cccc3c(N)nccc23)ccn1 [Example 4421, 5-N-({2-[3-(1-methylimidazol-2-yl)propoxy]pyridin-4-yl}methyl)isoquinoline-1,5-diamine]
25 | 3 to 10 | Cn1ccnc1COc1cc(CNc2ccc3c(N)nccc3c2)ccn1 [Example 4422, 6-N-({2-[(1-methylimidazol-2-yl)methoxy]pyridin-4-yl}methyl)isoquinoline-1,6-diamine]
26 | 3 to 10 | Cn1ccnc1COc1cc(CNc2cccc3c(N)nccc23)ccn1 [Example 4423, N5-((2-((1-methyl-1H-imidazol-2-yl)methoxy)pyridin-4-yl)methyl)isoquinoline-1,5-diamine]
27 | 0.1 to 0.3 | CN1CCC(C)(COc2cc(CNc3cccc4c(N)nccc34)ccn2)CC1 [Example 4424, N5-((2-((1,4-dimethylpiperidin-4-yl)methoxy)pyridin-4-yl)methyl)isoquinoline-1,5-diamine]
28 | 0.3 to 1 | CN1CCC(C)(COc2cc(CNc3ccc4c(N)nccc4c3)ccn2)CC1 [Example 4425, 6-N-({2-[(1,4-dimethylpiperidin-4-yl)methoxy]pyridin-4-yl}methyl)isoquinoline-1,6-diamine]
